From publication PMC9688344, “[^225Ac]Ac-SibuDAB for Targeted Alpha Therapy of Prostate Cancer: Preclinical Evaluation and Comparison with [^225Ac]Ac-PSMA-617” (Cancers, 2022) come the findings set out here.

SMILES strings stand for the structures. Several values for one entry are separate records, joined by “and”; a condition that tells them apart may be missing. Equal values may be shown once. Entries after “also recorded” stand apart in the source; their conditions may differ.

A short description of data set [1]: Radioligand integrity by thin-layer chromatography. The data set is classed as physicochemical. The following applies: over a period of 48 h. Here is the method:
The PSMA ligands used in this study were synthesized using solid-phase chemistry methods as previously reported. The labeling of the PSMA ligands with actinium-225 was performed at ITM Medical Isotopes GmbH, Munich, Germany (Supplementary Material: Section S1). The radioligands (~50 kBq/nmol; ~0.5 MBq/mL) were shipped to the Paul Scherrer Institute (PSI) overnight followed by assessing their integrity using thin-layer chromatography. […] Depending on the experiment, the molar activity of the radioligands was adjusted by adding unlabeled ligand and the final formulation was prepared by adding vehicle (saline with 0.05% bovine serum albumin (BSA)) to obtain the desired activity concentration. Radiolabeling of SibuDAB with lutetium-177 (5–10 MBq/nmol) was performed as previously reported.

The target in another data set is T1, PSMA (Homo sapiens, UniProt Q04609).
T1 construct: expressed in transfected cells; host or cells: PC-3 PIP prostate cancer cells (transduced to express PSMA), provided by Prof; Dr. Martin Pomper, Johns Hopkins University
T1 sequence (Q04609 whole entry): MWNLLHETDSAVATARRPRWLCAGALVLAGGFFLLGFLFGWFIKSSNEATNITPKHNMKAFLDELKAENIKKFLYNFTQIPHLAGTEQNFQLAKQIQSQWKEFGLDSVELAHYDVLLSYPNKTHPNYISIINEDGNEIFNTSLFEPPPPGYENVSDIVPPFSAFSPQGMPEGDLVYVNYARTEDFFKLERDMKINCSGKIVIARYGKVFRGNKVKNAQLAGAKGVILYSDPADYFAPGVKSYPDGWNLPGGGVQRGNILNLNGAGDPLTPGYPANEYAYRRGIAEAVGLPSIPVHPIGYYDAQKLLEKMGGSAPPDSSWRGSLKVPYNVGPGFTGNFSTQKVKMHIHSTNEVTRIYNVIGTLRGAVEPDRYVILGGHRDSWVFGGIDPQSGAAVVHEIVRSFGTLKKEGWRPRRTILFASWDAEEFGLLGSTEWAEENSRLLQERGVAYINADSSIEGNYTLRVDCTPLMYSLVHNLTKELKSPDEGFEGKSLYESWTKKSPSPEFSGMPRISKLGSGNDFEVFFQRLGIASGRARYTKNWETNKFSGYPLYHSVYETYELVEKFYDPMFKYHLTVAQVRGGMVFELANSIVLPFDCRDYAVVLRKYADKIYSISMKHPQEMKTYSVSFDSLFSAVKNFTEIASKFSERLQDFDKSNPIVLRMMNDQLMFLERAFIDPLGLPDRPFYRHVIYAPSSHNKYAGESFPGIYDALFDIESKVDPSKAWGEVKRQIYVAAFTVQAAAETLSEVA
Put plainly: PSMA-binding affinity (KD values) on PC-3 PIP cells. The following applies: on ice.

The test system of data set [2] is PSMA-positive PC-3 PIP cells. Put plainly: Cell uptake and internalization. The data set is classed as cell-based. The conditions noted are these: 4 h incubation; % of total added activity.
In data set [3] the test system is PSMA-negative PC-3 flu cells. Put plainly: Cell uptake in PSMA-negative cells. The data set is classed as cell-based.
Data set [4] deals with PSMA-positive PC-3 PIP tumor xenografts. Put plainly: Therapy study in PC-3 PIP tumor-bearing mice. The data set is classed as in vivo, BALB/c nude mice. Here is the method:
Five days after subcutaneous inoculation of four groups of mice with either PC-3 PIP or PC-3 flu tumor cells on the right shoulder (4 × 10^6 cells in 100 μL HBSS), the mice were intravenously injected with either vehicle only (saline with 0.05% BSA, n = 6 and n = 4, respectively) or with 30 kBq [^225Ac]Ac-SibuDAB (1 nmol per mouse; n = 4 per group) diluted in vehicle (Table 1).
After tumor cell inoculation, mice bearing PC-3 PIP tumor xenografts were intravenously injected with vehicle only (n = 6) or with [^225Ac]Ac-SibuDAB or [^225Ac]Ac-PSMA-617, respectively, applied at 5 kBq or 10 kBq (1 nmol per mouse; n = 6 per group; Table 1). The control group consisted of mice from several studies (n = 12 mice) and the data from this group were published previously.
After administration of the radioligands, the mice were monitored over 8 weeks using the same measures as previously published by Umbricht et al.. The relative body mass was defined as [BMx/BM0], where BMx is the body mass in grams at a given Day x and BM0 is the body mass in grams at Day 0. The tumor dimension was determined by measuring the longest tumor axis (L) and its perpendicular axis (W) with a digital caliper. The tumor volume (V) was calculated according to the equation [V = 0.5 × (LW^2)]. The relative tumor volume was defined as [TVx/TV0], where TVx is the tumor volume in mm^3 at a given Day x, and TV0 is the tumor volume in mm^3 at Day 0. Endpoint criteria that required euthanasia were defined as (i) body mass loss of >15%, (ii) a tumor volume of >800 mm^3, (iii) a combination of body mass loss of >10% and a tumor volume of >700 mm^3 or, (iv) signs of unease and pain or a combination thereof using a scoring system as previously reported. The median survival of mice of each group was assessed with Kaplan–Meier curves. Potential early side effects for mice that survived until study end were determined based on blood chemistry and organ-to-brain mass ratios on Day 56 by comparison to values obtained from an additional group of therapy-naïve mice (n = 4) without tumors but of the same age (Supplementary Material: Section S9).
Table S10. Biodistribution data and tumor-to-background ratios obtained in PC3-PIP/flu tumor-bearing mice 48 h after injection of [225Ac]Ac-SibuDAB, [177Lu]Lu-SibuDAB, [225Ac]Ac-PSMA-617 or [177Lu]Lu-PSMA-617. Decay-corrected data of accumulated activity are shown as [% IA/g]-values, representing the average ± SD.
Biodistribution data at 48 h p.i.
1 Data of [177Lu]Lu-PSMA-617 were previously published by Benešová et al., Mol Pharm 2018 [2]; Copyright 2018, American Chemical Society.
Purpose: In order to determine the therapeutic efficacy of [225Ac]Ac-SibuDAB in com-parison to [225Ac]Ac-PSMA-617 as well as the 177Lu-labeled counterparts, therapy studies were conducted in PC-3 PIP xenograft-bearing BALB/c nude mice.
Methods: The methods of the therapy study to assess the therapeutic efficacy of [225Ac]Ac-SibuDAB are reported in the main manuscript. An additional group of mice was treated with 10 MBq (1 nmol) [177Lu]Lu-SibuDAB under the same experimental condi-tions. Data previously acquired by our group for mice treated with 5 MBq [177Lu]Lu-SibuDAB were published by Borgna & Deberle et al. and data of mice treated with 5 MBq or 10 MBq [177Lu]Lu-PSMA-617 were previously published by Tschan et al. and Umbricht et al., respectively.
Results: The assessment of the PSMA-specific therapeutic effect of [225Ac]Ac-SibuDAB as well as the comparison to [225Ac]Ac-PSMA-617 are described in the main ar-ticle. The body mass of effectively treated mice, in which the tumor disappeared entirely […]
tumor-bearing mice that were treated with only vehicle as well as for some mice that were treated with 5 kBq or 10 kBq [225Ac]Ac-PSMA-617 and experienced a relapse in tumor

As usually defined, the Kd is the constant that tells how readily two partners part at equilibrium. A low value points to a tighter complex. In data set [1], `O=C([O-])CN1CCN(CC(=O)[O-])CCN(CC(=O)NCC2CCC(C(=O)NC(Cc3ccc4ccccc4c3)C(=O)NCCCCC(NC(=O)NC(CCC(=O)O)C(=O)O)C(=O)O)CC2)CCN(CC(=O)[O-])CC1.[225Ac+3]` (stereo not shown) [[^225Ac]Ac-PSMA-617] showed an intact radioligand greater than 99%. Also, the dissociation constant Kd on PSMA turned out to be 0.011 µM. Besides, in data set [2], the Cell uptake amounted to 63 ± 5% and the “Internalization (internalized fraction)” value is reported as 19 ± 3%. Besides, the Cell uptake in data set [3] is recorded as less than 1%. Further, in data set [4] (5 kBq), the “Day of first endpoint” value turned out to be 42; the “Day of last endpoint” value is given as 56; the “Median Survival” value amounted to 46 days; the “Number of Mice Alive on Day 56” value was “one out of six and 1/6”. The Tumor response result in data set [4] (5 kBq) is listed as “tumor regrowth was observed”. Moreover, in data set [4] (10 kBq), the “Day of first endpoint” value is on record as 38; the “Day of last endpoint” value worked out at 56; the “Median Survival” value is >56 ^3 days; the “Number of Mice Alive on Day 56” value is “four out of six and 4/6”.
As to `CC(C)Cc1ccc(C(C)C(=O)NC(CCN)C(=O)NCCCCC(NC(=O)CN2CCN(CC(=O)[O-])CCN(CC(=O)[O-])CCN(CC(=O)[O-])CC2)C(=O)NCC2CCC(C(=O)NC(Cc3ccc4ccccc4c3)C(=O)NCCCCC(NC(=O)NC(CCC(=O)O)C(=O)O)C(=O)O)CC2)cc1.[225Ac+3]` (stereo not shown) [[^225Ac]Ac-SibuDAB], in data set [1], the intact radioligand was greater than 99%. Also, the equilibrium dissociation constant (Kd) at PSMA was 0.017 µM. Moreover, the Cell uptake was 59 ± 1% in data set [2] and less than 1% in data set [3]. The “Internalization (internalized fraction)” value in data set [2] is on record as 25 ± 5%. Further, the “Day of first endpoint” value in data set [4] (5 kBq), in data set [4] (10 kBq) and in data set [4] (30 kBq) was 56 ^2 in each case. Also, the “Day of last endpoint” value in data set [4] (5 kBq), in data set [4] (10 kBq) and in data set [4] (30 kBq) was 56 ^2 throughout. The “Median Survival” value in data set [4] (5 kBq), in data set [4] (10 kBq) and in data set [4] (30 kBq) was >56 ^3 days in each case. In addition, the “Number of Mice Alive on Day 56” value is recorded as 6/6 in data set [4] (5 kBq), 6/6 in data set [4] (10 kBq) and 4/4 in data set [4] (30 kBq). Besides, the Tumor response result was “sufficient to eradicate the tumors; also recorded: effectively eradicated tumors of all mice; also recorded: no tumors were visible at Day 56” in data set [4] (5 kBq); “no tumors were visible 56 days after; also recorded: no tumor visible on Day 56” in data set [4] (5 kBq, listed as [225Ac]Ac-SibuDAB); “effectively eradicated tumors of all mice” in data set [4] (10 kBq); “no tumor visible on Day 56” in data set [4] (10 kBq, listed as [225Ac]Ac-SibuDAB); “eradicated PSMA-positive PC-3 PIP tumors entirely” in data set [4] (30 kBq); “no tumor visible on Day 56” in data set [4] (30 kBq, listed as [225Ac]Ac-SibuDAB).
